Assay results reported in US5516777A, “Condensed pyrazole derivatives, and androgen inhibitor” (Otsuka Pharmaceutical Co., Ltd., priority 1992, dated 1996).

Columns and labels:
[1] = Oral absorption (blood level after oral administration); type: in vivo; details: Wistar male rat, 30 mg/ml/kg, serum
Method: After administration, the rat is fixed on a plate with nails and strings. […] The serum was obtained by centrifuging with a blood serum separating tube ([…] tube). To 100 μl of the serum thus obtained was added 300 μl of methanol, and the mixture was centrifuged. Next, 50 μl of the supernatant was applied to a high-performance liquid chromatography, and the blood level of the compound was measured. Conditions of the high-performance liquid chromatography are as follows: Column: […] 300, 4.6 mm diameter and 150 mm length Eluent: 48% CH3 CN-0.01% TFA Flow rate: 1 ml/minute Detection: UV 290 nm Sensitivity: 0.01 AUFS Colume temperature: 50° C. As Comparative Example 10, the compound expressed in the following chemical formula disclosed in U.S. Pat.

[2] = In vitro drug metabolism in rat liver extract; type: in vitro ADME, male Wistar rats; details: pH 7.4, 37° C.; for remaining at 5 min / remaining at 0.25 h / remaining at 0.5 h / remaining at 1 h: rat liver extract; for remaining at 5 min: read-out: Residual amount of test compound, 5 min.; for remaining at 0.25 h: 15 min., read-out: Residual amount of test compound, 15 min.; for remaining at 0.5 h: 30 min., read-out: Residual amount of test compound, 30 min.; for remaining at 1 h: 60 min., read-out: Residual amount of test compound, 60 min.; for half-life: half-life in the rat liver extract, read-out: Half-time period
Method: 2. In vitro drug metabolism in rat liver extract
The resistance of the compound against metabolic degradation by rat liver extract was investigated.
The male Wistar rats (weighing about 200 g) were used after fasting for 24 hours. The rat was sacrificed under ether anesthesia, and the livers were removed and were placed onto the ice.
The liver was minced with scissors under ice-cooling, and homogenized in the presence of 4 volumes of 1.15% KCl-0.1M phosphate buffer (pH 7.4) with a Potter type homogenizer. The homogenates were centrifuged at 9,000×g for 10 minutes at 4° C., and the supernatant filtered through the cheese-cloth was used as an enzyme solution.
The constitution of the reaction mixture was shown in below. 0.1M Buffer was sufficiently bubbled in 95% O2 -5% CO2 gas before use.
Glucose 6-phosphate (60.8 mg.ml)
Nicotineamide (9.16 mg/ml)
The tested samples were dissolved in dimethyl sulfoxide. MgCl2 ·6H2 O was dissolved in a distilled water, and all other reagents were dissolved in 0.1M phosphate buffer. The reaction was initiated by adding enzyme solution, and shaked at 37° C. with 120 cycles/minutes in Spitz test tubes with stoppers. The reaction was stopped by adding methanol after 5, 15, 30 and 60 minutes.
After termination of the reaction, samples were mixed by using of a Vortex mixer, and centrifuged at 3,000 rpm for 10 minutes. The supernatant was applied to a high-performance liquid chromatography of which conditons are shown in below. A residual amount of the mother compound was determined at certain time intervals, whererby half-life of the compound in the rat liver extract was calculated.
Column: Chemcosorb 5C18-300 Å 4.6 mm diameter and 150 mm length
Colume temperature: 50° C.

[3] = target: T1, rat prostate androgen receptor (Rattus norvegicus, UniProt P15207); details: 1 nM ^3 H-mibolerone, 20 hours at 0° C., rat ventral prostate cytosol; read-out: Inhibitory activity on mibolerone specific binding [IC50 (M)]
T1 sequence (P15207 1-902): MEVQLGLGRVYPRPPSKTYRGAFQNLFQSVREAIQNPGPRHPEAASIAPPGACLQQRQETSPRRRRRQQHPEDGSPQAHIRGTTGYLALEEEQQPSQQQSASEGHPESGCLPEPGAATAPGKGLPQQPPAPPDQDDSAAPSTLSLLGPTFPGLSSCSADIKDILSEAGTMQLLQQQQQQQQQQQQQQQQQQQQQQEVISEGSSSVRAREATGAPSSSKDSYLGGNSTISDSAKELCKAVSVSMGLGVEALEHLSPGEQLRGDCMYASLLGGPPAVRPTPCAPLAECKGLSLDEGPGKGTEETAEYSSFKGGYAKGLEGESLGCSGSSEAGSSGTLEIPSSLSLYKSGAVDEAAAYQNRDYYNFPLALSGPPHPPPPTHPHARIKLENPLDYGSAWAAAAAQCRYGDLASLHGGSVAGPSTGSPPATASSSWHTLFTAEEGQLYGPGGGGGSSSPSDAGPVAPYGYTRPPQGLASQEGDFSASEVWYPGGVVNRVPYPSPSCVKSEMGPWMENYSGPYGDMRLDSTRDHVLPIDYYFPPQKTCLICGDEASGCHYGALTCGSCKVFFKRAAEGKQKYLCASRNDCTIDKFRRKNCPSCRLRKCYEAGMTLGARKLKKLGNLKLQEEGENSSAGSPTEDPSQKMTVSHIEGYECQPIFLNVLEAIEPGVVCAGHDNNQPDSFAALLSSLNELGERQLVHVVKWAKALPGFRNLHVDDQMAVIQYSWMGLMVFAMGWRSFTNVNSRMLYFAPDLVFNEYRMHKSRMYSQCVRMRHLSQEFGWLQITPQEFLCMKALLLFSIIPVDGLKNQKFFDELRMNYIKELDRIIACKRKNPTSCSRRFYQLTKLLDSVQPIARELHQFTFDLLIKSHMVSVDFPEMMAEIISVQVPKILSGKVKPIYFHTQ
Method: Assay of inhibitory activity to binding of ^3 H-mibolerone on rat prostate androgen receptor
(1) Preparation of Cytosol from Rat Prostate
The rats were killed 24 hours after castration, and the ventral prostate glands were removed, and was gently homogenized, with three volume of buffer solution A (1.5 mM EDTA, 2 mM dithiothreitol, 10 mM molybdate sodium, 10% by volume of glycerol, 10 mM NaF, 25 mM phosphate sodium, pH 7.2) on ice-water bath, in Polytron, and Potter type homogenizer. The obtained homogenate was filtrated through double gauze, and centrifuged at 105,000×g for 60 minutes at 4° C., and the supernatant was obtained as cytoplasm fraction.
(2) Measurement of Specific binding of ^3 H-mibolerone to Prostate Cytoplasm Androgen Receptor
To the cytoplasm fraction obtained in (1) was added ^3 H-mibolerone (87.0 Ci/millimol), so that a final concentration is adjusted to 1 nM, and at the same time, in order to block binding of ^3 H-mibolerone to progestin receptor, triamsinolone acetonide was added to a final concentration of 5 μM, and the final volume was adjusted to 0.4 ml with buffer solution A, and the reaction mixture was incubated for 20 hours at 0° C. After incubation, 0.5 ml of 60% hydroxylapatite slurry (washed and equilibrate with a buffer solution B: 10 mM NaH2 PO4, 20 mM tris-hydrochloric acid, pH 7.2) was added, and incubated for 10 minutes at 0° C., the solution was transferred onto a glass fiber filter, and washed five times with 5 ml portions of buffer solution B containing 0.1% (weight/volume) of Triton X-100, to remove free ^3 H-mibolerone. This glass fiber was transferred into vial, and 10 ml of aquasol- 2 was added, and the radioactivity was measured, and the total binding amount of ^3 H-mibolerone on prostate cytoplasm androgen receptor was determined.
The nonspecific binding amount was determined similarly by adding an unlabeled 5α-DHT in the reaction solution to a final concentration of 1 μM. The difference between the total binding amount and nonspecific binding amount was determined as the specific binding amount on the androgen receptor.
(3) Inhibitory Activity of Sample Compounds on ^3 H-mibolerone Specific Binding
The various concentrations of compounds obtained in the experiments were added simultaneously with ^3 H-mibolerone to incubate same as in (2), and the specific binding amount of ^3 H-mibolerone on androgen receptor was determined. Comparing this value with the value obtained in (2), the IC50 value of inhibitory activity of the compounds on ^3 H-mibolerone specific binding was determined.

Compound | concentration at 4 h ([1]; 30 mg/kg) | concentration at 8 h ([1]; 30 mg/kg) | Blood Level, 20 minutes ([1]; 20 minutes) | Blood Level, 1 hours ([1]; 1 hour) | Blood Level, 2 hours ([1]; 2 hours) | remaining at 5 min [2] | remaining at 0.25 h [2] | remaining at 0.5 h [2] | remaining at 1 h [2] | half-life [2] | IC50 [3] | concentration at 20 min ([1]; 30 mg/kg, 20 minutes) | concentration at 1 h ([1]; 30 mg/kg, 1 hour) | concentration at 2 h ([1]; 30 mg/kg, 2 hours)
CCc1ccccc1NS(=O)(=O)c1ccc(-c2cnn3c(O)ncnc23)cc1 [Comparative Example 10, reference compound] | 112 ng/mL | 31 ng/mL | 0 ng/mL | 0 ng/mL | 0 ng/mL | – | – | – | – | – | – | – | – | –
Cc1ccccc1Cc1ccc(-c2cnn3c(O)ncnc23)cc1 [Example 14, 4-hydroxy-8-[4-(2-methylphenylmethyl)phenyl]pyrazolo[1,5-a]-1,3,5-triazine] | – | – | – | – | – | 82.9% | 77.8% | 82.5% | 55.5% | > 60 min | 6.4e-07 M | – | – | –
CC(c1ccccc1)c1ccc(-c2cnn3c(O)ncnc23)cc1 (stereo not drawn) [Example 19, 4-hydroxy-8-[4-(α-methylbenzyl)phenyl]pyrazolo[1,5-a]-1,3,5-triazine] | – | – | – | – | – | 94.4% | 84.7% | 68.3% | 42.4% | 52 min | 3.9e-08 M | – | – | –
COc1cc(-c2cnn3c(O)ncnc23)ccc1Cc1ccccc1 [Example 4, 8-(4-benzyl-3-methoxy)phenyl-4-hydroxypyrazolo[1,5-a]-1,3,5-triazine] | – | – | – | – | – | 56.9% | 44.6% | 49.9% | 38.2% | 30 min | 7.4e-08 M | – | – | –
COc1cc(-c2cnn3c(O)ncnc23)ccc1Cc1cccc(C)c1 [Example 12] | – | – | – | – | – | 93% | 91.8% | 97.4% | 90.8% | > 60 min | 2.3e-08 M | – | – | –

Now from value to molecule:

concentration at 4 h ([1]; 30 mg/kg) | concentration at 8 h ([1]; 30 mg/kg) | Blood Level, 20 minutes ([1]; 20 minutes) | Blood Level, 1 hours ([1]; 1 hour) | Blood Level, 2 hours ([1]; 2 hours) | remaining at 5 min [2] | remaining at 0.25 h [2] | remaining at 0.5 h [2] | remaining at 1 h [2] | half-life [2] | IC50 [3] | concentration at 20 min ([1]; 30 mg/kg, 20 minutes) | concentration at 1 h ([1]; 30 mg/kg, 1 hour) | concentration at 2 h ([1]; 30 mg/kg, 2 hours) | Compound
– | – | – | – | – | 86.1% | 68.9% | 64.7% | 51.9% | > 60 min | 9.9e-08 M | – | – | – | COc1cccc(Cc2ccc(-c3cnn4c(O)ncnc34)cc2)c1 [Example 15, 4-hydroxy-8-[4-(3-methoxyphenylmethyl)phenyl]pyrazolo[1,5-a]-1,3,5-triazine]
– | – | – | – | – | 88.5% | 74.3% | 66% | 53.4% | > 60 min | 1.2e-07 M | – | – | – | COc1cccc(Cc2ccc(-c3cnn4c(O)ccnc34)cc2)c1 [Example 28, 7-hydroxy-3-[4-(3-methoxyphenylmethyl)phenyl]pyrazolo[1,5-a]pyrimidine]
1420 ng/mL | 731 ng/mL | – | – | – | 92.2% | 62.4% | 60.2% | 42.9% | 45 min | 2.8e-07 M | 1590 ng/mL | 2690 ng/mL | 1250 ng/mL | Oc1ncnc2c(-c3ccc(Cc4ccccc4)cc3)cnn12 [Example 1, 8-(4-benzylphenyl)-4-hydroxypyrazolo[1,5-a]-1,3,5-triazine]
– | – | – | – | – | 98.3% | 98.8% | 91.5% | 87.9% | > 60 min | 1.8e-08 M | – | – | – | COc1cccc(Cc2ccc(-c3cnn4c(O)ncnc34)cc2OC)c1 [Example 11]
